Test results: patent US20180162871A1, “FLUORESCENT PROBE FOR DETECTING CALPAIN ACTIVITY” (The University of Tokyo, priority 2015, published 2018)
Non-standard residues stand in square brackets, D forms with d. Residues, ends and D or L forms follow the SMILES beside them. Nle = CCCC[C@H](N)C(=O)O

Experiments:
[1] = system: calpain activity in HeLa cells; assay: Live cell imaging of calpain activity in HeLa cells; type: cell-based; conditions: for visualization of calpain activity in HeLa cells (fluorescence image): 30 minutes with 10 KM of probe, confocal microscope
Experimental: The calpain activity in HeLa cells was visualized by the following procedure using Ac-LLY-HMRG.
(a) HeLa cells were incubated for one hour at 37° C. using FBS (BD Pharmingen stain buffer)-free DMEM (Dulbecco's modified Eagle's medium), and also incubated for 30 minutes by 10 KM of Ac-LLY-HMRG. Fluorescence images and transmission images were taken thereafter using a confocal microscope.
The calpain activity in HeLa cells was visualized by the following procedure using Ac-LM-HMRG.
(a) HeLa cells were incubated for one hour at 37° C. using FBS (BD Pharmingen stain buffer)-free DMEM (Dulbecco's modified Eagle's medium), (b) 1 KM ALLN (calpain selective inhibitor)-containing DMEM (FBS (−)), (c) 2 KM ALLN-containing DMEM (FBS (−)), and (d) 5 KM ALLN-containing DMEM (FBS (−)), and also incubated for 30 minutes by 10 KM of Ac-LM-HMRG. Fluorescence images and transmission images were taken thereafter using a confocal microscope. The results are shown in FIGS. 4a-4d (the left side of each drawing is the fluorescence image; the right side is the transmission image). The scale bar in the drawing is 50 μm.

[2] = Measurement of the optical properties; type: physicochemical; conditions: 0.2 M sodium phosphate buffer of pH 2
Experimental: The optochemical properties of Ac-LLY-HMRG and Ac-LM-HMRG were measured in 0.2 M sodium phosphate buffer of pH 2.

[3] = molecular target: T1, calpain-1 from human erythrocytes (Homo sapiens, UniProt P07384); assay: In vitro enzyme assay using calpain (calpain 1); type: biochemical; conditions: probe 1 μM, 50 mM Tris buffer pH 7.4, 5 μM CaCl2, 25° C., excitation 495 nm, fluorescence 524 nm
T1 construct: calpain-1 from human erythrocytes; purchased 208713; host or cells: purified from human erythrocytes
T1 sequence (P07384 1-714): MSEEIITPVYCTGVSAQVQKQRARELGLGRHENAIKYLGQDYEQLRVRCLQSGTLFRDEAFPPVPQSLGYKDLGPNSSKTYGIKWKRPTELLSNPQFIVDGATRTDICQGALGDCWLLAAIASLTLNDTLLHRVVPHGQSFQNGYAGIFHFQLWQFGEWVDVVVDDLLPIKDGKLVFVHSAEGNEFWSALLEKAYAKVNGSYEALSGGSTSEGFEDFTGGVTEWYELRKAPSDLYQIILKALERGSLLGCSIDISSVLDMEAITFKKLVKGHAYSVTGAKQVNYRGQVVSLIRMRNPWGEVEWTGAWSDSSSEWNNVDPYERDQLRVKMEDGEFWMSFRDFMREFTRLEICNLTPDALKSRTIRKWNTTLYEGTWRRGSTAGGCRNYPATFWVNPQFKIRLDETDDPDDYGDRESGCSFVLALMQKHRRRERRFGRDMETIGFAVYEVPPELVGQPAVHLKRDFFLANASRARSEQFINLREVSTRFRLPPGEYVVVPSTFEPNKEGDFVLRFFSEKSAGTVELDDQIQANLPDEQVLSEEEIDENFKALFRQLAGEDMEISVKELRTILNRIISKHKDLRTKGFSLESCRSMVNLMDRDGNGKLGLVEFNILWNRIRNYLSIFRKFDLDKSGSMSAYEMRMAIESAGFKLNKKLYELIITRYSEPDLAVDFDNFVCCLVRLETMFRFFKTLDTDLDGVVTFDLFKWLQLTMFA
T1 sequence (P04632 1-268 partner): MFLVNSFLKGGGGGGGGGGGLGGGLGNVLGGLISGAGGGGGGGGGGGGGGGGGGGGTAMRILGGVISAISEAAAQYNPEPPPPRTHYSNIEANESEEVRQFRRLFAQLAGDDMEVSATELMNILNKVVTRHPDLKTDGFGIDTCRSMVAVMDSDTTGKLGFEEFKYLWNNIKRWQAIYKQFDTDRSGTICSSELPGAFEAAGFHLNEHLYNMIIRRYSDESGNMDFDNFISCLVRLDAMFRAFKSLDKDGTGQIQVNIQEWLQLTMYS
Experimental: (§1) A calpain enzyme addition assay was conducted in Tris buffer under the following conditions using a probe synthesized and designed by the above method. As a result, the absorption and fluorescence intensity of Ac-LLY-HMRG increased about two-fold due to the enzymatic reaction, and it was confirmed to function as a calpain probe. The results are shown in FIG. 1a (using calpain 1) and FIG. 1b (using calpain 2).
(§2) A quantity of 3 μL of a DMSO solution (1 mM) of the probe was dissolved in 3 mL of 50 mM Tris buffer (pH 7.4) (containing 5 μM of CaCl2 for calpain 1 and 500 μM of CaCl2 for calpain 2) (final probe concentration: 1 μM). […] The excitation wavelength was 495 nm, and the fluorescence wavelength was 524 nm. […]
(§3) A calpain enzyme addition assay was conducted in Tris buffer using a probe synthesized and designed by the above method. As a result, the absorption and fluorescence intensity of Ac-LM-HMRG increased about four-fold due to the enzymatic reaction with calpain 2, and it was confirmed to function as a calpain probe. […]
(§4) A quantity of 3 μL of a DMSO solution (1 mM) of the probe was dissolved in 3 mL of 50 mM Tris buffer (pH 7.4) (containing 5 μM of CaCl2 for calpain 1 and 500 μM of CaCl2 for calpain 2) (final probe concentration: 1 μM). […] The excitation wavelength was 495 nm, and the fluorescence wavelength was 524 nm.

[4] = system: calpain-2 from porcine kidney; assay: In vitro enzyme assay using calpain (calpain 2); type: biochemical; conditions: probe 1 μM, 50 mM Tris buffer pH 7.4, 500 μM CaCl2, 25° C., excitation 495 nm, fluorescence 524 nm
Experimental: as §1, §2, §3, §4

rat NMDA injury model = assay: Rat NMDA injury model, fundus photography; type: in vivo, SD rats; conditions: Ac-LM-HMRG 2 mM, 2 μL to the eye
Experimental: SD rats were placed under general anesthesia using Nembutal. N-methyl-D-aspartic acid (NMDA) (10 mM, 2 μL) or PBS was administered to the eye. The animals were again placed under anesthesia by ketamine-xylazine mixture four hours later, and Ac-LM-HMRG (2 mM, 2 μL) was administered to the eye. The fundus was photographed by an F10 (Nidec confocal biomicroscope).
In FIGS. 5 and 6, locations indicated by an arrow show nerve cells stained by HMRG.

mouse NMDA injury model = assay: Flat-mounted retinas with mouse NMDA injury model; type: in vivo, BL6/J mice; conditions: Ac-LM-HMRG 0.5 mM, 1 μL to the eye
Experimental: A study by mouse NMDA injury model was conducted with flat-mounted retinas. […] After one week, the mice were anesthetized by Nembutal, and 1 μL of 30 mM NMDA (PBS solution) or 1 μL of PBS was administered to the vitreous body in the eye. Two weeks later, the mice were again anesthetized by ketamine-xylazine, and Ac-LM-HMRG (0.5 mM, 1 μL, PBS solution) was administered to the eye. One hour after Ac-LM-HMRG administration, Sytox (registered trademark) Orange (for staining cells that have undergone cell death, […], 1 μL, PBS solution) (manufactured by Invitrogen) was administered to the vitreous body. Ten minutes later, the eyeball was removed, fixed for two hours by 4% paraformaldehyde (PFA), and flat-mounted retinas were prepared.

Row | Structure (SMILES) | effect of inhibitor on fluorescence intensity within the cells ([1]; for one hour at 37° C., then 10 KM of Ac-LM-HMRG for 30 minutes) | visualization of calpain activity in HeLa cells (fluorescence image) [1] | Absmax [2] | Emmax [2] | Φn [2] | increase of absorption and fluorescence intensity due to the enzymatic reaction [3] | increase of absorption and fluorescence intensity due to the enzymatic reaction [4] | staining of nerve cells in fundus photograph, NMDA group (rat NMDA injury model; NMDA-administered rats, 30, 60, and 90 minutes after administration) | staining of nerve cells in fundus photograph, PBS group (rat NMDA injury model; PBS-administered rats, after 30, 60 and 90 minutes) | staining of flat-mounted retina, NMDA group (mouse NMDA injury model; NMDA group mice) | staining of flat-mounted retina, PBS group (mouse NMDA injury model; PBS group mice)
1 | CCCC[C@@H](C=O)NC(=O)[C@H](CC(C)C)NC(=O)[C@H](CC(C)C)NC(C)=O [ALLN, reference compound] (Ac-Leu-Leu-[Nle]-aldehyde) | decreased the fluorescence intensity within the cells |  |  |  |  |  |  |  |  |  | 
2 | CSCC[C@H](NC(=O)[C@H](CC(C)C)NC(C)=O)C(=O)Nc1ccc2c(c1)Oc1cc(N)ccc1C21OCc2ccccc21 (stereo partly shown) [Ac-LLY-HMRG] |  | made it possible to monitor the calpain activity inside HeLa cells | 470 nm | 526 nm | 0.19 | about two-fold | about two-fold |  |  |  | 
3 | CC(=O)N[C@@H](CC(C)C)C(=O)N[C@@H](CC(C)C)C(=O)N[C@@H](Cc1ccc(O)cc1)C(=O)Nc1ccc2c(c1)Oc1cc(N)ccc1C21OCc2ccccc21 (stereo partly shown) [Ac-LM-HMRG] |  | made it possible to monitor the calpain activity inside HeLa cells | 470 nm | 529 nm | 0.32 |  | about four-fold | nerve cells were clearly stained | nerve cells were only very slightly stained | calpain activity was detected | not found
4 | N=c1ccc2c(-c3ccccc3CO)c3ccc(N)cc3oc-2c1 [HMRG, reference compound] |  |  | 501 nm | 524 nm | 0.81 |  |  |  |  |  | 
